Results: patent EP0794786B1, “THE USE OF INOSITOLTRI[…] THE PREPARING OF MEDICAMENTS” (Bioneris AB,, priority 1994, dated 1996)

Experiments:
Type in all cases: in vivo
glioma tumor tissue = assay: Glioma tumor growth in mice after subcutaneous inoculation of rat glial cells, IP3 via osmotic minipumps
Protocol: Rat glial cells were grown in a stationary suspension culture in a medium supplemented with 15 % heat inactivated horse serum and 2.5 % heat inactivated fetal calf serum in a 5 % CO2 humidified atmosphere at 37°C.
The cells were harvested using trypsine solution and the concentration of cells were measured. The cells were centrifuged and resuspended to a concentration of 1 million cells/ml.
Twelve female specific pathogen free mice at an age of 12 weeks (weighing 20-25 g) were maintained in autoclaved cages with filter tops in horizontal air flow cabiners in a unit equipped with specific filters. Autoclaved bedding, irradiated feed and sterile water was used. The temperature and humidity was kept constant at 22 ± 2°C, 65 ± 5 % relative humidity.
To each animal 0.1 ml of the cellsuspension was inoculated subcutanousely in the right flank at day 0.
After five days, osmotic minipumps (ALZET) were surgically placed subcutanously into 7 animals, while 5 animals, shamoperated, served as a control group.
Each minipump contained approximately 200 µl of a solution of 1.0 g/2,5 ml of the sodium salt of 1-D-myo-inositol-1,2,6-trisphosphate (IP3). The minipumps gave a continous dosage of IP3 for 14 days.
The injection of glioma cells into the animals cause a growth of tumors. The growth of the tumors was examined by measuring two diameters along two perpendicular axes. The true tumor diameter was estimated as the diameter minus 0.5 mm (which is the thickness of the skin). Tumor area (A) was calculated by multiplying the two true diameters and tumor volume was calculated by the formula: /6 x A^3/2 x 0.67.

prostate tumor tissue = assay: Prostate tumor growth in mice after subcutaneous injection of a specific cell type, IP3 via osmotic minipumps
Source text: In a procedure similar to the one described in example 2 prostate tumor growth was induced by subcutanous injection of a specific cell type to mice. One group of animals received IP3 via osmotic minipumps while another group of animals served as a control.

[1] = Toxicity after intraperitoneal injection to mice; conditions: 160 mg/kg body weight by intraperitoneal injection to mice
[2] = system: Lewis lung carcinoma cells (ATCC CRL-1642); assay: Lewis lung carcinoma experiment in mice: lung weight and histological angiogenesis
Protocol: Lewis lung carcinoma cells (ATCC CRL-1642) were grown as a suspension culture in a medium with 4.5 g/l glucose with 10 % heat inactivated bovine serum in a 5 % CO2 humidified atmosphere at 37°C. The cells were subcultured by diluting cell suspensions 1:6. After harvesting by centrifugation and resuspension, the cells were counted in a counting chamber. The cells were resuspended with medium to a concentration of 10 million cells/ml.
Ten male specific pathogen free mice at an age of 6 weeks were maintained in autoclaved caves with filter tops in a barrier unit equipped with HEPA filters. Autoclaved bedding, irradiated feed and sterile filtered water was used. The temperature and humidity was kept constant (22 ± 2°C, 65 ± 5 % RH).
To each animal 0.1 ml of the cell suspension was inoculated subcutanousely in the right flank at day 0. After 15 days, osmotic minipumps (ALZET) were surgically placed subcutaneously into 5 animals while another 5 animals, sham operated, served as a control group.
Each minipump contained 226 µl of a solution of 0.4 g/ml of the sodium salt of 1-D-myo-inositol-1,2,6-trisphosphate (IP3). The minipumps gave a continous dosage of IP3 for 6 days.
The injection of lung carcinoma cells cause a formation of tumors and angiogenesis in lung tissue. The weight of the lungs after the experiment is considered as a measurement of the amount of tumor tissue which is formed.

Compound O=P(O)(O)O[C@@H]1[C@H](OP(=O)(O)O)[C@H](O)[C@@H](O)[C@H](O)[C@H]1OP(=O)(O)O [IP3, D-myo-inositol-1,2,6-trisphosphate] has a Tumor volume (glioma tumor tissue; Day 0 (inoculation; minipumps placed after five days)) of 0 mm^3, a Tumor volume (glioma tumor tissue; Day 10, sodium salt of IP3 1.0 g/2,5 ml, approx. 200 µl minipump s.c. from day 5, continuous for 14 days) of 115 mm^3 and a Tumor volume (glioma tumor tissue; Day 13, minipump s.c. from day 5, continuous for 14 days) of 270 mm^3. For the same compound, the Tumor volume (glioma tumor tissue; Day 15, minipump s.c. from day 5, continuous for 14 days) was 620 mm^3, the Tumor volume (glioma tumor tissue; Day 17, minipump s.c. from day 5, continuous for 14 days) was 880 mm^3 and the Tumor volume (glioma tumor tissue; Day 20, minipump s.c. from day 5, continuous for 14 days) was 2420 mm^3. For the same compound, the Tumor volume (prostate tumor tissue; Day 0) was 0 mm^3, the Tumor volume (prostate tumor tissue; Day 7) was 36 mm^3 and the Tumor volume (prostate tumor tissue; Day 10) was 62 mm^3. The Tumor volume (prostate tumor tissue; Day 17) was 51 mm^3, the Tumor volume (prostate tumor tissue; Day 24) was 95 mm^3 and the Tumor volume (prostate tumor tissue; Day 28) was 171 mm^3. The Tumor volume (prostate tumor tissue; Day 35) was 215 mm^3, the toxic effects [1] was “no toxic effects” and the “angiogenesis (histological examination)” value ([2]; IP3 minipump s.c. after 15 days, for 6 days, compared with sham operated animals) was “lower angiogenesis”. The mean lung weight ([2]; sodium salt of IP3 0.4 g/ml, 226 µl minipump s.c. after 15 days, continuous for 6 days, sham operated animals 0.312 g) was 0.198 g.
